Ten compounds from US20260193242A1, “USEFUL COMPOUNDS FOR MODULATING INFLAMMATION” (FLAGSHIP PIONEERING INNOVATIONS VI, LLC, priority 2022, published 2026) can be followed below.

Assay [1] has as its system R848-driven IRF reporter (Lucia luciferase, ISG54 promoter/IFN-stimulated response elements) in THP-1 cells. Kind of assay: TLR7/8 (R848) stimulated interferon response element reporter gene assay in THP1-Dual cells. The format is cell-based. The settings on record: Homo sapiens, THP-1, 10 μM compound, 1 μM R848, THP1-Dual cells; read-out: R848-driven IRF reporter gene assay (Percent inhibition at 10 μM). The protocol: (§1) Compounds described herein are added to the human leukemic monocyte-like cell line THP-1 for bioactivity assessment. THP1-Dual cells (InvivoGen, San Diego, CA) feature the Lucia gene, a secreted luciferase reporter gene, under the control of an ISG54 minimal promoter in conjunction with five IFN-stimulated response elements. THP1-Dual cells also express a secreted embryonic alkaline phosphatase (SEAP) reporter gene driven by an IFN-β minimal promoter fused to five copies of the NF-κB consensus transcriptional response element and three copies of the c-Rel binding site. As a result, THP1-Dual cells allow the simultaneous study of the NF-κB pathway, by monitoring the activity of SEAP, and the IRF pathway, by assessing the activity of Lucia luciferase.
(§2) THP-1 dual reporter cells were grown in RPMI 1640 culture medium with 2 mM L-glutamine, 25 mM HEPES, 10% heat-inactivated fetal bovine serum, 100 μg/ml Normocin antibiotic (InvivoGen), Pen-Strep antibiotic (100 U/ml-100 μg/ml, InvivoGen). On the day of the assay, cells were seeded in a 384 flat-bottom well plate at 25,000 cells/well and incubated for 2 hours. Cells were then incubated with 10 μM of the compounds described herein or with 1 μM of IKK-16 (Selleck), a potent inhibitor of IκB kinases (IKKs) or with DMSO (vehicle control) for 2 hours, followed by the addition of the synthetic TLR7/8 agonist R848 at 1 μM and incubation for 16 hours. After incubation was concluded, the cultures supernatants were collected and IRF related activity was assessed by measurement of the Lucia luciferase, using Quanti-Luc assay (InvivoGen). NF-κB pathway activity was assessed by quantifying SEAP using Quanti-Blue assay (InvivoGen).
On the technique in general: Reporter assays use an easily measured gene product as a stand-in for the process of interest.

For assay [2], the system named is R848-driven NFκB reporter (SEAP) in THP-1 cells. As to the kind of experiment: TLR7/8 (R848) stimulated NFκB reporter gene assay in THP1-Dual cells. The settings on record: Homo sapiens, THP-1, 10 μM compound, 1 μM R848, THP1-Dual cells; read-out: R848-driven NFκB reporter gene assay (Percent inhibition at 10 μM). Format: cell-based. On the procedure:
as §1, §2

Assay [3] relates to LPS induced septic shock, C57/B6L mice. Kind of assay: LPS induced septic shock model in mice. The format is in vivo. On the procedure:
In the LPS induced septic shock model in mice, the TLR4 agonist LPS is injected into the peritoneal cavity of mice, inducing production of pro-inflammatory cytokines that can be measured in blood two hours later (FIG. 2).
Female C57/B6L mice, 5 mice in each group, were injected with LPS (1 mg/kg) to induce septic shock 30 minutes after oral administration of compounds described herein (formulated in Phosal 50) or the controls dexamethasone (formulated in saline), a corticosteroid, and MCC950 (formulated in 0.5% methylcellulose), an inflammasome inhibitor. The mice were euthanized 2 hours after LPS stimulation, and the whole blood was drawn, processed to plasma, and snap frozen. Cytokine levels in plasma were determined by cytometric bead array assay.

Assay [4] deals with TNBS-induced colitis, Balb/c mice. As to the kind of experiment: TNBS-induced model of colitis in mice, dosing from day -1, prophylactic mode. Conditions: for IL-1ß in plasma / IL-6 in plasma: vs Vehicle group; for pathological score (crypt structure failure, inflammatory cell infiltration): H&E colon. The format is in vivo. The protocol: (§3) Female Balb/c mice aged 8 weeks and weighing 18-20 g were housed under standard conditions. The mice were divided into groups with 8-10 mice in each group by body weight. Mice in sham group received intracolonic injection with 50% ethanol (0.1 mL) at day 0, whereas mice in other Trinitrobenzene sulfonic acid (TNBS) colitis model groups received intracolonic injection of 2% TNBS solution in ethanol (0.1 mL) at day 0. The reference compound Mesalazine (Selleck) and test articles described here were dosed from day-1 to day 6. Day 6 was the endpoint, and samples were immediately harvested for the last endpoint. Mesalazine was dissolved in distilled water (pH 7.0) and test articles were dissolved in Phosal 50 PG for delivery by oral gavage.
As noted, dosing of the compounds described herein, as well as the positive control mesalamine, began one day before TNBS administration. Animals in this scenario have not yet developed colitis symptoms before administration of test articles. For this reason, we refer to these conditions as “prophylactic mode”.
(§4) Body weight and Disease Activity Index (DAI) scores were recorded daily to assess the colitis. DAI score was the sum of the weight loss score, stool score and bleeding sub-scores. A blinded scoring system was employed to assess the colitis. The DAI scorer blinded to the group information and animal ID was responsible for the stool consistency and bleeding evaluations. If there was no blood visible with naked eyes, the Fecal occult blood (FOB) test was performed with a fecal occult blood test strip (the improved pyramidon method).
(§5) Colon tissue morphology, damage and healing were assessed by histopathology. The colons were harvested, mesentery and adipose tissue were carefully removed, and internal contents were removed by rinsing with cold PBS. The colons were Swiss-rolled and fixed in neutralized paraformaldehyde followed by H&E staining. Clinical pathologists reviewed the H&E staining and scored blinded with animal ID. The pathological scoring standards were: crypt architecture (normal, 0-severe crypt distortion with loss of entire crypts, 3), degree of inflammatory cell infiltration (normal, 0-dense inflammatory infiltrate, 3), muscle thickening (base of crypt sits on the muscularis mucosae, 0-marked muscle thickening present, 3), goblet cell depletion (absent, 0-present, 1) and crypt abscess (absent, 0-present, 1).
The plasma was collected at Day-1 for PK and cytokine (IL-1ß and IL-6) analysis by mandibular venipuncture.
(§6) The data was compared by ANOVA with post-hoc Dunnett's multiple comparisons test using Graph Pad Prism 7.0 software (San Diego, CA, USA). P-value<0.05 was considered as statistically significant difference. For pairwise comparison of histology scores and cytokines, unpaired t-test was used to calculate statistical significance. Data was expressed as mean±standard error of mean. In figures, statistical significance is denoted by asterisks: *p<0.05 **p<0.01 ***p<0.005, ****p<0.0001.

The test system is the same in assay [5]. As to the kind of experiment: TNBS-induced model of colitis in mice, dosing from day 2, therapeutic mode. The format is in vivo. The settings on record: for IL-1B in plasma / IL-6 in plasma: dosing from day 2, vs Vehicle group. The protocol: as §3, §4, §5, §6
Procedures were identical to those in Example 26, except that dosing of the compounds described herein, as well as the positive control mesalamine, began on the second day after TNBS administration, as diagrammed in FIG. 18. Animals in this scenario have developed colitis symptoms before administration of test articles. This is more similar to the clinical scenario with patients with inflammatory bowel disorder presenting with symptoms. For this reason, we refer to these conditions as “therapeutic mode”.

Where [6] appears, read: 30 mg/kg PO in Phosal 50, 30 min before LPS 1 mg/kg, plasma 2 hours after LPS, vs vehicle.
Where [7] appears, read: 30 mg/kg PO, QD, dosing from day 2.

For `CN1[C@@H](C(=O)O)CC[C@@H]1[C@@H]1COC(c2ccccc2O)=N1` [Compound I-1, (2R,5R)-5-((R)-2-(2-hydroxyphenyl)-4,5-dihydrooxazol-4-yl)-1-methylpyrrolidine-2-carboxylic acid], the inhibition at 10 µM came out at 20% in assay [1] and 10% in assay [2].

With `CN1[C@@H](C(=O)O)CC[C@H]1[C@@H]1COC(c2ccccc2O)=N1` [Compound I-2, (2R,5S)-5-((R)-2-(2-hydroxyphenyl)-4,5-dihydrooxazol-4-yl)-1-methylpyrrolidine-2-carboxylic acid], the inhibition at 10 µM in assay [1] was 31%; in assay [2], 5%.

Regarding `CN1[C@@H](C(=O)O)CC[C@@H]1[C@@H]1CSC(c2ccccc2O)=N1` [Compound I-3, (2R,5R)-5-((R)-2-(2-hydroxyphenyl)-4,5-dihydrothiazol-4-yl)-1-methylpyrrolidine-2-carboxylic acid], in assay [1], the inhibition at 10 µM was at least 50%. Also, in assay [2], the inhibition at 10 µM amounted to 40%. Moreover, in assay [3] (setting [6]), the IFNγ in plasma entry is “statistically significant decreases”, the IL-12p70 in plasma result is on record as “statistically significant decreases” and the TNFα in plasma entry is “statistically significant decreases”. For the same compound, the “body weight (% initial weight) recovery” value in assay [4] (30 mg/kg, PO, QD, day -1 to day 6) is “faster recovery rate”. In assay [4] (1, 3, 10 and 30 mg/kg PO, QD), the total histology scores entry was “lower”; the IL-1ß in plasma result was “decreased”; the IL-6 in plasma entry is “decreased”; the “pathological score (crypt structure failure, inflammatory cell infiltration)” value is listed as “lower”. Further, the “Disease Activity Index (DAI) scores” value in assay [4] (1, 3, 10 and 30 mg/kg PO, QD, day -1 to day 6) is “dose-dependent improvement”. For the same compound, the ED50 in assay [4] (Mus musculus, 144 h, PO, QD, day -1 to day 6, read-out: dose for half maximal effect or ED50 (DAI score at Day 6)) turned out to be 15 mg/kg. Besides, the “colon recovery and mucosal healing” value in assay [4] (in a dose-dependent manner, prophylactic mode) was “promoted the colon recovery and mucosal healing”. Further, in assay [5] (setting [7]), the “Disease Activity Index (DAI) scores” value is reported as “improvement”, the “body weight (% initial weight) recovery” value is given as “faster recovery rate” and the total histology scores entry is recorded as “lower”. Further, in assay [5] (30 mg/kg PO, QD), the IL-1B in plasma entry is “decreased” and the IL-6 in plasma entry was “decreased”. Further, in assay [5] (therapeutic mode), the “colon recovery and mucosal healing” value is “promoted the colon recovery and mucosal healing”.

With `CNC(=O)[C@H]1CC[C@@H]([C@@H]2CSC(c3ccccc3O)=N2)N1C` [Compound I-5, (2R,5S)-5-((R)-2-(2-hydroxyphenyl)-4,5-dihydrothiazol-4-yl)-N,1-dimethyl pyrrolidine-2-carboxamide], the inhibition at 10 µM in assay [1] came out at 17%; in assay [2], 27%.

In the case of `COCCOCCOc1ccc(C2=N[C@H]([C@@H]3CC[C@H](C(=O)O)N3C)CO2)c(O)c1` [Compound I-7, (2R,5S)-5-((R)-2-(2-hydroxy-4-(2-(2-methoxyethoxy)ethoxy)phenyl)-4,5-dihydrooxazol-4-yl)-1-methylpyrrolidine-2-carboxylic acid], the inhibition at 10 µM in assay [1] was at least 50%; in assay [2] it was 28%.

Turning to `COCCOCCOc1ccc(C2=N[C@H]([C@@H]3CC[C@H](C(=O)O)N3C)CS2)c(O)c1` [Compound I-8, (2R,5S)-5-((R)-2-(2-hydroxy-4-(2-(2-methoxyethoxy)ethoxy)phenyl)-4,5-dihydrothiazol-4-yl)-1-methylpyrrolidine-2-carboxylic acid], the inhibition at 10 µM in assay [1] and in assay [2] was at least 50% each time.

For the compound `COCCOCCOc1ccc(C2=N[C@H]([C@H]3CC[C@H](C(=O)O)N3C)CS2)c(O)c1` [Compound I-10, (2R,5R)-5-((R)-2-(2-hydroxy-4-(2-(2-methoxyethoxy)ethoxy)phenyl)-4,5-dihydrothiazol-4-yl)-1-methylpyrrolidine-2-carboxylic acid], the inhibition at 10 µM in assay [1] is 3%; in assay [2], 14%.

With `CN1[C@@H](C(=O)O)CC[C@@H]1[C@@H]1COC(c2ncccc2O)=N1` [Compound I-11, (2R,5R)-5-((R)-2-(3-hydroxypyridin-2-yl)-4,5-dihydrooxazol-4-yl)-1-methylpyrrolidine-2-carboxylic acid], the inhibition at 10 µM in assay [1] is 5%; in assay [2], 6%.

`Nc1ccc(O)c(C(=O)O)c1` [Mesalazine, reference compound]: the total histology scores result was “lower” in assay [4] (100 mg/kg PO, QD) and “lower” in assay [5] (100 mg/kg PO, QD, dosing from day 2). Moreover, the “pathological score (crypt structure failure, inflammatory cell infiltration)” value in assay [4] (100 mg/kg PO, QD) is “lower”. For the same compound, the “body weight (% initial weight) recovery” value in assay [4] (100 mg/kg, QD, day -1 to day 6) is on record as “faster recovery rate”; in assay [5] (100 mg/kg, QD, dosing from day 2), “faster recovery rate”. In addition, the IL-1ß in plasma entry in assay [4] (100 mg/kg, QD) was “decreased”. For the same compound, the IL-6 in plasma entry in assay [4] (100 mg/kg, QD) is recorded as “decreased”; in assay [5] (100 mg/kg, QD), “decreased”. The IL-1B in plasma result in assay [5] (100 mg/kg, QD) is listed as “decreased”.

Turning to `C[C@@H]1C[C@H]2[C@@H]3CCC4=CC(=O)C=C[C@]4(C)[C@@]3(F)[C@@H](O)C[C@]2(C)[C@@]1(O)C(=O)CO` [dexamethasone, reference compound], the “activity on plasma cytokines (positive control)” value in assay [3] (1.5 mg/kg PO, formulated in saline) is “active”.

One may read the inhibition as the percentage by which the read-out fell short of the control. As a reminder, the ED50 is the midpoint of the dose-response relation.
